Assay results taken from patent US10940188B2, “Compounds and methods for treatment and prevention of Flavivirus infection” (priority 2016, dated 2021).

How the values were obtained:
[1] = system: forebrain-specific hNPCs infected by FSS13025; assay: Immunostaining of ZIKV-infected forebrain-specific hNPCs (monolayer) for cleaved caspase-3 and ZIKVE; format: cell-based, human
From the text: FIGS. 1A-1, 1A-2, 1A-3, 1B-1, 1B-2, 1C-1, and 1C-2. Emricasan suppresses cell death of ZIKV-infected human astrocytes and hNPCs in 2D monolayer cultures and 3D brain organoids. Emricasan (FIG. 1A-1) inhibits caspase-3 activity and improves cell viability in human astrocytes infected with three different strains of ZIKV in a concentration dependent manner. Value represent mean±s.d. (n=3). The curves (FIGS. 1A-2 and 1A-3) represent best fit. (FIG. 1B) Sample images of immunostaining (FIG. 1B-1) of forebrain-specific hNPCs for ZIKV envelop protein (ZIKVE; green) and cleaved-caspase 3 (Cas3; red) and DAPI (gray) 72 hours after ZIKV FSS-13025 infection (MOI=0.04-0.08; Scale bar: 20 μm), and quantification (FIG. 1B-2). Values represent mean±s.e.m. (n=3; **P<0.01; Student's t-test). Sample images (FIG. 1C-1) of immunostaining of day 28 human forebrain-specific organoids for ZIKVE (green) and Cas3 (red) and DAPI (gray) 10 days after ZIKV FSS-13025 infection (Scale bar: 100 μm), and quantification (FIG. 1C-2). Values represent mean±s.e.m. (n=6; ***P<0.001; Student's t-test).
Cells were fixed with 4% paraformaldehyde (Sigma) for 15 min at room temperature. Samples were permeabilized and blocked with 0.25% Triton X-100 (Sigma) and 10% donkey or goat serum in PBS for 20 min as previously described (Chiang et al., 2011; [41]; Yoon et al., 2014). […]

[2] = system: forebrain-specific brain organoids; assay: hNPC proliferation in forebrain organoids (phospho-Histone 3), compound alone; format: cell-based, human; conditions: 3 days
Protocol: FIGS. 17A-17C. Analysis of potential toxicity of CDKis on human astrocyte viability and hNPC proliferation. Human iPSC-derived astrocytes (BJ line) were treated with each indicated compound (cpd) for 25 hours prior to cell viability analysis as measured in relative luciferase units for ATP production. Values represent mean+s.d. (n=3 cultures; ***P<0.001; **P<0.01; One-way ANOVA for comparison with the DMSO treatment). RLU: relative luminescence units. hNPCs were treated with saline, PHA-690509 (PHA, 1 μM) or Seliciclib (5 μM), 1 hour prior to ZIKV PRVABC59 infection (MOI=0.08). At 72 hours post infection, EdU (10 μM) was added to hNPCs and cells were cultured for additional 4 hours prior to fixation and staining for EdU and DAPI. Values represent mean+s.e.m. (n=3 cultures; ***P<0.001; One-way ANOVA for comparison with the mock treatment). Day 20 forebrain-specific brain organoids were treated with PHA-690509 (1 μM) or Seliciclib (5 μM) for 3 days and hNPC proliferation was evaluated by phospho-Histone 3 (PH3) expression within the ventricular zone. Values represent mean+s.e.m. (n=8 organoids; P>0.05; One-way ANOVA for comparison with the mock treatment).

Row | Structure (SMILES) | number of cleaved caspase-3-expressing hNPCs, monolayer ([1]; FSS13025 infection, 72 hours) | suppression of ZIKV replication (ZIKV antigen in 2D and 3D cultures) ([1]; after Emricasan treatment) | effect of the treatment itself on hNPC proliferation [2]
1 | C[C@H](NC(=O)C(=O)Nc1ccccc1C(C)(C)C)C(=O)N[C@@H](CC(=O)O)C(=O)COc1c(F)c(F)cc(F)c1F [Emricasan] | reduced the number of active (cleaved) caspase-3-expressing forebrain-specific hNPCs | does not suppress ZIKV replication | –
2 | CC(=O)Nc1ccc([C@H](C)C(=O)Nc2ncc(C(C)C)s2)cc1 [PHA-690509] | – | – | minimal effect on hNPC proliferation in brain organoids
